{
  "source": "patent US20250326725A1",
  "about": "“PI4-Kinase Inhibitors and Methods of Using the Same” (The Board of Trustees of the Leland Stanford Junior …, priority 2019, published 2025)",
  "key": {"lung cancer cell lines [1]": {"test_system": "lung cancer cell lines", "assay": "PI4P levels in lung cancer cell lines", "format": "cell-based, human", "details": "panel of lung cancer cell lines", "description": "(§1) Human lung cancer cells (A549, H1299, H460, H23, H2122, and H3122) were cultured in RPMI 1640 containing 10% FBS. Cells were maintained at 37° C. in an incubator with a humidified atmosphere containing 5% CO2.\n(§2) To assess the anti-cancer activity of exemplary PI4K antagonists, a panel of lung cancer cell lines annotated for the presence or absence of PI4K amplifications were treated with PI4K inhibitors (IN-9, TN-10, or compound B) that have greater than 1000-fold selectivity […] PI4KIIIβ over class I and class III PI3K family members. […] IC50 values were even lower with the presence of PI4K amplifications.\n(§3) PI4KIIIβ is a target in human cancers, including lung adenocarcinoma. (FIG. 1A). PI4P concentrations in H2122 cells (dots) treated in triplicate (dots) with Compound B or vehicle dimethyl sulfoxide (DMS). (FIG. 1B) Relative densities of PI4-kinase-amplified (red) and -diploid (black) human lung adenocarcinoma cell lines determined by WST-1 assays after 5 days of Compound B treatment. Results expressed relative to the lowest dose, which was set at 100%. (FIG. 1B, right panel) Half maximal inhibitory (IC50) concentrations of compound B determined from FIG. 1B, left panel. (FIG. 1C) Migrated and invaded 1-23 human lung adenocarcinoma cells in Transwell chambers were photographed (images) and counted (bar graphs) after treatment with compound B. Results expressed relative to DMSO-treated cells, which were set at 1.0. (FIG. 1C, right panel). Colonies formed by H2122 human lung cancer cells in soft agarose (FIG. 1D) and on plastic (FIG. 1E) were photographed (images) and counted (bar graphs) after 7 days of treatment with the indicated doses of compound B or vehicle DMSO (0 M). Results expressed relative to DMSO control, which were set at 1.0. PI4-kinase inhibition leads to selective cytotoxicity for cancer cells (FIG. 1F)."}, "lung cancer cell lines [2]": {"test_system": "lung cancer cell lines", "assay": "Cell proliferation in monolayer culture (WST-1)", "format": "cell-based, human", "details": "panel of lung cancer cell lines", "description": "as §1, §2, §3"}, "lung cancer cell lines [3]": {"test_system": "lung cancer cell lines", "assay": "Migration and invasion in Boyden chambers", "format": "cell-based, human", "details": "panel of lung cancer cell lines", "description": "as §1, §2, §3"}, "lung cancer cell lines [4]": {"test_system": "lung cancer cell lines", "assay": "Colony formation in soft agar and on plastic", "format": "cell-based, human", "details": "panel of lung cancer cell lines", "description": "as §1, §2, §3"}, "PI3KC2γ": {"target": "PI3KC2γ (Homo sapiens, UniProt O75747)", "sequence (O75747 whole entry, species assumed)": "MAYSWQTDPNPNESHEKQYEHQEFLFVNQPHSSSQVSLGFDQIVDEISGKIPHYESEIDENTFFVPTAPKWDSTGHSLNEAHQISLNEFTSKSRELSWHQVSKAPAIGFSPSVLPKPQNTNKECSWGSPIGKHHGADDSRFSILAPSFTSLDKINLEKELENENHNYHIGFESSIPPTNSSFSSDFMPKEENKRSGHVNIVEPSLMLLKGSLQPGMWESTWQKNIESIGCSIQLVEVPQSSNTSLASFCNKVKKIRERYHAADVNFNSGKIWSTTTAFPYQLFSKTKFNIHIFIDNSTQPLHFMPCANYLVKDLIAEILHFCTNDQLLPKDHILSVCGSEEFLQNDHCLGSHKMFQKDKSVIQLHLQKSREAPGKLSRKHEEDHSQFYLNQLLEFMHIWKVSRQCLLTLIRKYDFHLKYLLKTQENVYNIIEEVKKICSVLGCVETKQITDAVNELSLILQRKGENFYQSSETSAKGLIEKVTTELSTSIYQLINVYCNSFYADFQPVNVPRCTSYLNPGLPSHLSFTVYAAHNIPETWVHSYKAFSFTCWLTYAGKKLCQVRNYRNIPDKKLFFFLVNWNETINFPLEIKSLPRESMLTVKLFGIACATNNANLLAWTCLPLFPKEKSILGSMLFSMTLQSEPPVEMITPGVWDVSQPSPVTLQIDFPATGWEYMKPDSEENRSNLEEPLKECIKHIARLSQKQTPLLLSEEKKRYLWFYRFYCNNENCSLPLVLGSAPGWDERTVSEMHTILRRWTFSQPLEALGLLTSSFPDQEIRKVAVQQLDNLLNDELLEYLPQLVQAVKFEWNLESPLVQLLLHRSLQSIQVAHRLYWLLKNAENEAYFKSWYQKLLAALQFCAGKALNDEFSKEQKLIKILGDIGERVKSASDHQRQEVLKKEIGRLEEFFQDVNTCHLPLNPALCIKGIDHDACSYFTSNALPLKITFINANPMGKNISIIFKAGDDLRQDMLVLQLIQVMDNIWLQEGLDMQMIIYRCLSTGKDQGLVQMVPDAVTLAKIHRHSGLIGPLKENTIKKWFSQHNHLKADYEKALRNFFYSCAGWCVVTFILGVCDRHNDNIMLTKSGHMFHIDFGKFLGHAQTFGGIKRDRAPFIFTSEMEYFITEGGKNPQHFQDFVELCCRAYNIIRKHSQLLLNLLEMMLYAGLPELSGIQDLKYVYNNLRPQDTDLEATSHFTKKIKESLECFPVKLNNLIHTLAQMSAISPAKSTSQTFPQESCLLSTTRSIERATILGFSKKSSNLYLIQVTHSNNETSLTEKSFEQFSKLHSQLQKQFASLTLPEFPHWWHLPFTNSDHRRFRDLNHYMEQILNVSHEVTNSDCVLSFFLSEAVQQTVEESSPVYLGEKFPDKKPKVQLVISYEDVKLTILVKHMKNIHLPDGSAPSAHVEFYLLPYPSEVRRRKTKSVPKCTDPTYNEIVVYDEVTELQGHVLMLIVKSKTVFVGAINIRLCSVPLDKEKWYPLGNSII", "details": "cited from earlier work"}, "PI3Kα": {"target": "PI3Kα (Homo sapiens, UniProt P42336)", "details": "cited from earlier work"}, "PI4K2α": {"target": "PI4K2α (Homo sapiens, UniProt Q9BTU6)", "sequence (Q9BTU6 whole entry)": "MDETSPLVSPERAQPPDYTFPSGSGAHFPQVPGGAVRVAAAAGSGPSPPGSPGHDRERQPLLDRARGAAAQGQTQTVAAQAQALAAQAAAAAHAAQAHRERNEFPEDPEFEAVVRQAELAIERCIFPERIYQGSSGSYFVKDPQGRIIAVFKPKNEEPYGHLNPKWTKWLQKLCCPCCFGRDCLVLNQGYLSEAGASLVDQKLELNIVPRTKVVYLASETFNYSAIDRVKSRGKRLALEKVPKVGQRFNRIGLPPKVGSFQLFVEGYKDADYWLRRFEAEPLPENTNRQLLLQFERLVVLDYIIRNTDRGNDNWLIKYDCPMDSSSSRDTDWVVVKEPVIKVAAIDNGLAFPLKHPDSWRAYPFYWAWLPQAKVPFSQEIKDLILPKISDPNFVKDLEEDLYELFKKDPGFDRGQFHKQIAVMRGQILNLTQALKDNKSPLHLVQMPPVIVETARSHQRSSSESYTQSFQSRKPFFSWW", "details": "at concentrations up to 20 μM; cited from earlier work"}, "PI4K2β": {"target": "PI4K2β (Homo sapiens, UniProt Q8TCG2)", "sequence (Q8TCG2 whole entry)": "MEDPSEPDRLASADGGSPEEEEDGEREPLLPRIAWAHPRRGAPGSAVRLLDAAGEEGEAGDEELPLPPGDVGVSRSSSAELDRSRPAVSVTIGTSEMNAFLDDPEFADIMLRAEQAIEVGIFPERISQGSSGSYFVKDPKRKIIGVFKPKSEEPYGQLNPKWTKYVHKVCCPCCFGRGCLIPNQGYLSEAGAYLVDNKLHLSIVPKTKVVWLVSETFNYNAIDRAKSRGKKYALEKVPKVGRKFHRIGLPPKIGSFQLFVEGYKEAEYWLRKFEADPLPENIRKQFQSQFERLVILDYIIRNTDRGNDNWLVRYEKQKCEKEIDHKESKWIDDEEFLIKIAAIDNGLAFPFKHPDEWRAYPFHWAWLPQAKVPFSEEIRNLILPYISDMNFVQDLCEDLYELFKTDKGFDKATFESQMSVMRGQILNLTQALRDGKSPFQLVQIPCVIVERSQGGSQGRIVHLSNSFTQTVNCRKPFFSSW", "details": "at concentrations up to 20 μM; cited from earlier work"}, "PI3Kβ": {"target": "PI3Kβ (Homo sapiens, UniProt P42338)", "sequence (P42338 whole entry, species assumed)": "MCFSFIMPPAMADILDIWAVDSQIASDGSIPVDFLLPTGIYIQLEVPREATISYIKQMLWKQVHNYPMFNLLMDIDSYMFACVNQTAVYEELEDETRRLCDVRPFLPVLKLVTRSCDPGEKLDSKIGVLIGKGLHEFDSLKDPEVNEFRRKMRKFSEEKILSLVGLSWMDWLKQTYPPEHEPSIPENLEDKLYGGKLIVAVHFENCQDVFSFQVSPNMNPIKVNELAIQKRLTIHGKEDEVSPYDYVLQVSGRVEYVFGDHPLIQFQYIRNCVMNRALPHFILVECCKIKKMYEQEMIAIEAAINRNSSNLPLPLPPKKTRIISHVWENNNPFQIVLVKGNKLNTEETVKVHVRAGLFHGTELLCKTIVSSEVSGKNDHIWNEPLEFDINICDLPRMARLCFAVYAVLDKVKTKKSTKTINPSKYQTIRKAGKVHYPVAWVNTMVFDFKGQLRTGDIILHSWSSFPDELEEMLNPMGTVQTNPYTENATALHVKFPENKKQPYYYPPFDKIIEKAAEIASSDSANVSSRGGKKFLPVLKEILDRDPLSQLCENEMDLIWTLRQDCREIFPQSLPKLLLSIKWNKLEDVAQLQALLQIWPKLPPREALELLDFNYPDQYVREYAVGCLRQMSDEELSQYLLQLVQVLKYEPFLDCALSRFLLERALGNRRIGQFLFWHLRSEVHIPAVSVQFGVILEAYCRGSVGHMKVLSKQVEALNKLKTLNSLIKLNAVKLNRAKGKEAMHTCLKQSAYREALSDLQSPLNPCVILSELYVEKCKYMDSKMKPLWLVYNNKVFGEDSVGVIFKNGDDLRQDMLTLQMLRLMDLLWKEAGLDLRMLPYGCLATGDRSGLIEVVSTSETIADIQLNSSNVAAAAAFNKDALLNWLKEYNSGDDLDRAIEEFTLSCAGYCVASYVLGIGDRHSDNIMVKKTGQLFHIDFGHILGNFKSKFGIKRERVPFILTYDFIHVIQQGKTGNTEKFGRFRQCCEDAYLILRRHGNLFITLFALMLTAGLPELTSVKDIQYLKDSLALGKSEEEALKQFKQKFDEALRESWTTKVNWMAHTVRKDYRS", "sequence (P27986 whole entry partner, species assumed)": "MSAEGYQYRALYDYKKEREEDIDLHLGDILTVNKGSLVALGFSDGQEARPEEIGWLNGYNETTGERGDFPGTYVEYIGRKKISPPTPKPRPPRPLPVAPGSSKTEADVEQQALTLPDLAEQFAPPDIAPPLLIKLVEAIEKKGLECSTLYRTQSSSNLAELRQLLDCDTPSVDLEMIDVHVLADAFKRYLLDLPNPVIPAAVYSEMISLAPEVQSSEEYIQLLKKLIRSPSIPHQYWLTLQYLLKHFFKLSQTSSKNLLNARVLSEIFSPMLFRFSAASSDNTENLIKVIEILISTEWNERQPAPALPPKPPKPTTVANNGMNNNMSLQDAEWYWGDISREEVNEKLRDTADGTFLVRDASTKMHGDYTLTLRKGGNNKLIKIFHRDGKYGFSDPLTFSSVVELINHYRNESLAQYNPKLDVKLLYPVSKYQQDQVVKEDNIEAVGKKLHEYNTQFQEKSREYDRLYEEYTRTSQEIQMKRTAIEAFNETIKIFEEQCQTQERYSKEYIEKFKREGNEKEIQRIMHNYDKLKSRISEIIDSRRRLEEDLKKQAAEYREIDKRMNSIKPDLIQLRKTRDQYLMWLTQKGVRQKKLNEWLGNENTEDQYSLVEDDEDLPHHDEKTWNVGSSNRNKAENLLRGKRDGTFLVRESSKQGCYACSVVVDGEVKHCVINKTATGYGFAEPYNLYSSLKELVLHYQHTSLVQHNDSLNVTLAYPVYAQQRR", "details": "at concentrations up to 20 μM; cited from earlier work"}},
  "data": [
    {"smiles": "COc1ccc(-c2sc(NC(=O)C(C)(C)C)nc2C)cc1S(=O)(=O)Nc1ccc(O)cc1", "note": "[PI4KIIIbeta-IN-10]", "values": [
      {"measurement": "PI4P levels", "setting": "lung cancer cell lines [1]", "value": "decreased PI4P levels in a dose-dependent fashion"},
      {"measurement": "cell proliferation in monolayer culture", "setting": "lung cancer cell lines [2]", "value": "reduced cell proliferation in monolayer culture"},
      {"measurement": "migration and invasion in Boyden chambers", "setting": "lung cancer cell lines [3]", "value": "reduced"},
      {"measurement": "colony formation in soft agar and on plastic", "setting": "lung cancer cell lines [4]", "value": "reduced"},
      {"measurement": "IC50", "setting": "PI3KC2γ", "value": "~1", "unit": "µM"},
      {"measurement": "IC50", "setting": "PI3Kα", "value": "~10", "unit": "µM"},
      {"measurement": "inhibition of PI4K2α", "setting": "PI4K2α", "value": "< 20", "unit": "%"},
      {"measurement": "inhibition of PI4K2β", "setting": "PI4K2β", "value": "< 20", "unit": "%"},
      {"measurement": "inhibition of PI3Kβ", "setting": "PI3Kβ", "value": "< 20", "unit": "%"}
    ]}
  ]
}
